Three compounds from PMC7381729, “A new class of PentixaFor- and PentixaTher-based theranostic agents with enhanced CXCR4-targeting efficiency” (Theranostics, 2020) can be followed below.

A short description of data set [1]: Lipophilicity, modified shake-flask method. Type of data set: physicochemical. The settings on record: O/PBS, radiolabeled compound, means ± SD (n=6). The protocol: The lipophilicity (log PO/PBS) of the ^68Ga- and ^177Lu-labeled compounds in this study was determined via a modified shake-flask method.
The subject of data set [2] is Daudi (human B-cell lymphoma) xenograft bearing CB-17 SCID mice. Description: Biodistribution in Daudi xenograft bearing mice. Type of data set: in vivo, mouse. The settings on record: for Biodistribution brain / Biodistribution adrenals / Biodistribution femur / Biodistribution heart / Biodistribution kidney / Biodistribution liver / Biodistribution lung / Biodistribution muscle / Biodistribution pancreas / Biodistribution small intestine / Biodistribution spleen / Biodistribution stomach / Biodistribution tumor (Daudi xenograft) / Biodistribution blood: i.v., means ± SD. The method, then: (§1) The biodistribution of selected compounds was investigated in Daudi (human B-cell lymphoma) xenograft bearing female CB-17 SCID mice (6-8 weeks, Charles River, Sulzfeld, Germany), [29]. All animal experiments were performed in accordance with current animal welfare regulations in Germany (approval #55.2-1-54-2532-71-13).
(§2) Animals (n=4-5 per group) were injected intravenously with 5-10 MBq (0.08-0.11 nmol peptide per mouse) of the respective ^68Ga- and^ 177Lu-labeled CXCR4 ligands in PBS (100 µL) into the tail vein under isoflurane anesthesia. CXCR4-specificity of binding was determined by coinjection of 50 µg AMD3100 per mouse. The animals were sacrificed 1, 6 and 48h post injection (p.i.), and the organs of interest were dissected. The radioactivity was measured in weighted tissue samples using a γ-counter. Data are expressed in % ID/g tissue (mean ± SD).

Data set [3] is described as follows: Biodistribution in Daudi xenograft bearing mice. The format is in vivo, mouse. The settings on record: female, CB-17 SCID, mouse, iv, total radioactivity, 48h p.i., means ± SD, n=4-5 animals. The method, then: as §1, §2
[4] abbreviates: 1h p.i., tracer only, γ-counter, n=4-5 (68Ga: n=4).

The structures appear in SMILES notation. Like-named read-outs stand apart in the source and are kept apart here. Where a SMILES comes first, the peptide text is derived from it. Side-chain parts run from the residue outwards. [ ]: non-standard residue; d: D form. The star is where a group is joined. DOTA = O=C(O)CN1CCN(CC(=O)O)CCN(CC(=O)*)CCN(CC(=O)O)CC1; dTyr(3-I) = N[C@H](Cc1ccc(O)c(I)c1)C(=O)O; 2Nal = N[C@@H](Cc1ccc2ccccc2c1)C(=O)O; dNMeOrn = CN[C@H](CCCN)C(=O)O; 4Amb = NCc1ccc(C(=O)O)cc1; 4Abz = Nc1ccc(C(=O)O)cc1

On to `CN1C(=O)[C@@H](Cc2ccc(O)c(I)c2)NC(=O)CNC(=O)[C@H](Cc2ccc3ccccc3c2)NC(=O)[C@H](CCCNC(=N)N)NC(=O)[C@H]1CCCNC(=O)c1ccc(CNC(=O)CN2CCN(CC(=O)O)CCN(CC(=O)O)CCN(CC(=O)O)CC2)cc1` [[^177Lu]PentixaTher, cyclo(D-3-iodo-Tyr^1-D-[NMe]Orn^2(AMBS-([^177Lu]DOTA)-Arg^3-Nal^4-Gly^5), metal not drawn, reference compound] (cyclo([dTyr(3-I)][dNMeOrn]([4Amb-DOTA])R[2Nal]G)), for which the logD (commonly lipophilicity at a set pH, counting ionised and neutral species) in data set [1] (octanol/PBS) is -1.8 ± 0.2. In data set [2] (1h p.i., tracer only, γ-counter, n=4-5), the Biodistribution brain came out at 0.05 ± 0.01 %iD/g. In data set [2] (setting [4]), this compound returned a Biodistribution adrenals of 1.5 ± 0.6 %iD/g, a Biodistribution femur of 0.6 ± 0.2 %iD/g, a Biodistribution heart of 0.9 ± 0.3 %iD/g and a Biodistribution kidney of 3.4 ± 0.6 %iD/g. In data set [2] (setting [4]), this compound gave a Biodistribution liver of 10.3 ± 0.8 %iD/g, a Biodistribution lung of 2.5 ± 0.7 %iD/g, a Biodistribution muscle of 0.3 ± 0.1 %iD/g and a Biodistribution pancreas of 0.4 ± 0.1 %iD/g. Further, in data set [2] (setting [4]), the Biodistribution small intestine is 0.9 ± 0.2 %iD/g, the Biodistribution spleen is listed as 1.8 ± 0.3 %iD/g, the Biodistribution stomach amounted to 1.2 ± 0.3 %iD/g and the “Biodistribution tumor (Daudi xenograft)” value came out at 12.4±3.7 %iD/g. In data set [2] (6h p.i., n=4-5), the Biodistribution adrenals was 0.64 ± 0.13 %iD/g, the Biodistribution blood worked out at 0.09 ± 0.01 %iD/g, the Biodistribution brain is on record as 0.02 ± 0.005 %iD/g and the Biodistribution femur worked out at 0.23 ± 0.02 %iD/g. In data set [2] (6h p.i., n=4-5), this compound came in with a Biodistribution heart of 0.18 ± 0.02 %iD/g, a Biodistribution kidney of 2.52 ± 0.33 %iD/g, a Biodistribution liver of 9.59 ± 0.69 %iD/g and a Biodistribution lung of 0.42 ± 0.06 %iD/g. In data set [2] (6h p.i., n=4-5), this compound came in with a Biodistribution muscle of 0.06 ± 0.01 %iD/g, a Biodistribution pancreas of 0.09 ± 0.01 %iD/g, a Biodistribution small intestine of 0.22 ± 0.04 %iD/g and a Biodistribution spleen of 1.35 ± 0.41 %iD/g. Further, in data set [2] (6h p.i., n=4-5), the Biodistribution stomach is on record as 0.21 ± 0.01 %iD/g and the “Biodistribution tumor (Daudi xenograft)” value is on record as 6.79 ± 0.68 %iD/g. Moreover, in data set [2] (48h p.i. relative to early time point), the “Initial activity retained in the Daudi xenografts after 48h” value was determined as 25%. In addition, in data set [2] (48h p.i., n=4-5), the Biodistribution adrenals was found to be 0.56 ± 0.08 %iD/g, the Biodistribution blood is given as 0.02 ± 0.001 %iD/g, the Biodistribution brain was found to be 0.007 ± 0.002 %iD/g and the Biodistribution femur worked out at 0.22 ± 0.05 %iD/g. In data set [2] (48h p.i., n=4-5), this compound had a Biodistribution heart of 0.11 ± 0.01 %iD/g, a Biodistribution kidney of 1.20 ± 0.13 %iD/g, a Biodistribution liver of 8.25 ± 2.23 %iD/g and a Biodistribution lung of 0.21 ± 0.06 %iD/g. In data set [2] (48h p.i., n=4-5), this compound yielded a Biodistribution muscle of 0.04 ± 0.005 %iD/g, a Biodistribution pancreas of 0.08 ± 0.01 %iD/g, a Biodistribution small intestine of 0.11 ± 0.02 %iD/g and a Biodistribution spleen of 1.58 ± 0.33 %iD/g. Moreover, in data set [2] (48h p.i., n=4-5), the Biodistribution stomach came to 0.12 ± 0.02 %iD/g and the “Biodistribution tumor (Daudi xenograft)” value turned out to be 3.27 ± 0.41 %iD/g. In addition, in data set [3] (tumor / blood, read-out: Tumor/organ ratio t/blood), the tissue to tissue ratio at 48 h was 201 ± 27. Moreover, the tissue to tissue ratio at 48 h in data set [3] (tumor / colon, read-out: Tumor/organ ratio t/colon) came out at 13 ± 5. Further, in data set [3] (tumor / heart, read-out: Tumor/organ ratio t/heart), the tissue to tissue ratio at 48 h is 31 ± 4. Besides, the tissue to tissue ratio at 48 h in data set [3] (tumor / kidney, read-out: Tumor/organ ratio t/kidney) is 2.7 ± 0.4. For the same compound, the tissue to tissue ratio at 48 h in data set [3] (tumor / lung, read-out: Tumor/organ ratio t/lung) is 16 ± 5. Besides, the tissue to tissue ratio at 48 h in data set [3] (tumor / muscle, read-out: Tumor/organ ratio t/muscle) amounted to 85 ± 15. Further, the tissue to tissue ratio at 48 h in data set [3] (tumor / small intestine, read-out: Tumor/organ ratio t/small intestine) came out at 29 ± 6. In data set [3] (tumor / spleen, read-out: Tumor/organ ratio t/spleen), the tissue to tissue ratio at 48 h came out at 2.1 ± 0.5. Moreover, the tissue to tissue ratio at 48 h in data set [3] (tumor / stomach, read-out: Tumor/organ ratio t/stomach) is 27 ± 6.
For `C[C@@H](NC(=O)[C@@H](CCCNC(=N)N)NC(=O)CN1CCN(CC(=O)O)CCN(CC(=O)O)CCN(CC(=O)O)CC1)C(=O)Nc1ccc(C(=O)NCCC[C@@H]2C(=O)N[C@@H](CCCNC(=N)N)C(=O)N[C@@H](Cc3ccc4ccccc4c3)C(=O)NCC(=O)N[C@H](Cc3ccc(O)cc3)C(=O)N2C)cc1` [[^68Ga]DOTA-r-a-ABA-CPCR4] [metal not drawn] (cyclo([2Nal]G[dY][dNMeOrn]([4Abz-dA-dR-DOTA])R)), the “log PO/PBS” value in data set [1] was -3.6 ± 0.06. In data set [2] (setting [4]), this compound came in with a Biodistribution blood of 3.95 ± 0.89 %iD/g and a Biodistribution liver of 5.63 ± 0.51 %iD/g.
As for `C[C@@H](NC(=O)[C@@H](CCCNC(=N)N)NC(=O)CN1CCN(CC(=O)O)CCN(CC(=O)O)CCN(CC(=O)O)CC1)C(=O)Nc1ccc(C(=O)NCCC[C@@H]2C(=O)N[C@@H](CCCNC(=N)N)C(=O)N[C@@H](Cc3ccc4ccccc4c3)C(=O)NCC(=O)N[C@H](Cc3ccc(O)c(I)c3)C(=O)N2C)cc1` [[^68Ga]DOTA-r-a-ABA-iodoCPCR4] [metal not drawn] (cyclo([2Nal]G[dTyr(3-I)][dNMeOrn]([4Abz-dA-dR-DOTA])R)), the “log PO/PBS” value in data set [1] is -3.3 ± 0.02. In addition, in data set [2] (setting [4]), the Biodistribution adrenals worked out at 1.51 ± 0.18 %iD/g, the Biodistribution liver was 5.66 ± 0.40 %iD/g, the Biodistribution lung is 2.91 ± 0.28 %iD/g and the Biodistribution spleen was determined as 3.02 ± 0.46 %iD/g. Also, in data set [2] (setting [4]), the Biodistribution stomach is recorded as 0.93 ± 0.15 %iD/g and the “Biodistribution tumor (Daudi xenograft)” value is 8.32 ± 1.30 %iD/g.
